Reference: PubChem BioAssay AID330 (DTP/NCI, 2004)
Where “and” joins values, the source holds several entries; their conditions need not be identical. Identical values can stand only once. Toxic doses and inconclusive results are not listed. Rule for the calls: active = survival T/C of 150% or more; inactive = T/C below 125% in these data.

System: P388 leukemia ip, CD2F1 mice, survival T/C
Assay: NCI In Vivo Anticancer Drug Screen. Data for tumor model P388 Leukemia (intraperitoneal) in CD2F1 (CDF1) mice
Conditions: endpoint: median survival time, higher = longer survival
Procedure, shortened: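 Mice carrying the transplanted tumor received test compound or vehicle. Survival was recorded in each group, and the value is the treated-group measurement divided by that of the vehicle-treated control group.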

[1] = dose: 25.0 mg/kg/injection, schedule: Q01DX005 (ip), vehicle: Klucel (hydroxypropylcellulose) (HPC)
[2] = dose: 60.0 mg/kg/injection, schedule: Q01DX005 (ip), vehicle: Klucel (hydroxypropylcellulose) (HPC)
[3] = dose: 400.0 mg/kg/injection, schedule: Q01DX005 (ip), vehicle: Klucel (hydroxypropylcellulose) (HPC)
[4] = dose: 50.0 mg/kg/injection, schedule: Q01DX005 (ip), vehicle: saline with Tween-80
[5] = dose: 100.0 mg/kg/injection, schedule: Q01DX005 (ip), vehicle: saline with Tween-80
[6] = dose: 200.0 mg/kg/injection, schedule: Q01DX005 (ip), vehicle: saline with Tween-80
[7] = dose: 100.0 mg/kg/injection, schedule: Q01DX001 (ip), vehicle: saline with Tween-80
[8] = dose: 200.0 mg/kg/injection, schedule: Q01DX001 (ip), vehicle: saline with Tween-80
[9] = dose: 400.0 mg/kg/injection, schedule: Q01DX001 (ip), vehicle: saline with Tween-80
[10] = dose: 100.0 mg/kg/injection, schedule: Q04DX003 (ip), vehicle: Klucel (hydroxypropylcellulose) (HPC)
[11] = dose: 200.0 mg/kg/injection, schedule: Q04DX003 (ip), vehicle: Klucel (hydroxypropylcellulose) (HPC)
[12] = dose: 50.0 mg/kg/injection, schedule: Q01DX009 (ip), vehicle: Klucel (hydroxypropylcellulose) (HPC)
[13] = dose: 100.0 mg/kg/injection, schedule: Q01DX009 (ip), vehicle: Klucel (hydroxypropylcellulose) (HPC)
[14] = dose: 200.0 mg/kg/injection, schedule: Q01DX009 (ip), vehicle: Klucel (hydroxypropylcellulose) (HPC)
[15] = dose: 60.0 mg/kg/injection, schedule: Q01DX005 (ip), vehicle: saline with Tween-80
[16] = dose: 120.0 mg/kg/injection, schedule: Q01DX005 (ip), vehicle: saline with Tween-80
[17] = dose: 240.0 mg/kg/injection, schedule: Q01DX005 (ip), vehicle: saline with Tween-80

Measured: T/C

CN(C)C1=C(Cl)C(=O)c2[nH]cnc2C1=O
inactive: dose: 6.25 mg/kg/injection, schedule: Q01DX005 (ip), vehicle: Klucel (hydroxypropylcellulose) (HPC) 113 % of control | dose: 12.5 mg/kg/injection, schedule: Q01DX005 (ip), vehicle: Klucel (hydroxypropylcellulose) (HPC) 110 % of control | [1] 98 % of control

C=C1c2cccc(O)c2C(O)=C2C(=O)[C@]3(O)C(O)=C(C(N)=O)C(=O)[C@@H](N(C)C)[C@@H]3[C@@H](O)[C@H]12
inactive: dose: 21.6 mg/kg/injection, schedule: Q01DX005 (ip), vehicle: Klucel (hydroxypropylcellulose) (HPC) 105 % of control | [1] 105 % of control and 115 % of control | dose: 36.0 mg/kg/injection, schedule: Q01DX005 (ip), vehicle: Klucel (hydroxypropylcellulose) (HPC) 99 % of control and 106 % of control | [2] 102 % of control and 97 % of control | dose: 166.66 mg/kg/injection, schedule: Q01DX005 (ip), vehicle: Klucel (hydroxypropylcellulose) (HPC) 115 % of control | dose: 166.67 mg/kg/injection, schedule: Q01DX005 (ip), vehicle: Klucel (hydroxypropylcellulose) (HPC) 112 % of control | [3] 87 % of control

Cc1nc2cc(C(F)(F)F)cc(N)c2n1-c1ccccc1
inactive: [4] 113 % of control | [5] 106 % of control | [6] 111 % of control

O=C1NC(CN2CCC(O)CC2)C(=O)NC1CN1CCC(O)CC1 (stereo not drawn)
inactive: dose: 25.0 mg/kg/injection, schedule: Q01DX009 (ip), vehicle: saline 100 % of control | dose: 50.0 mg/kg/injection, schedule: Q01DX009 (ip), vehicle: saline 100 % of control | dose: 100.0 mg/kg/injection, schedule: Q01DX009 (ip), vehicle: saline 98 % of control | dose: 200.0 mg/kg/injection, schedule: Q01DX009 (ip), vehicle: saline 97 % of control

FC(F)(F)C(OP(OC(C(F)(F)F)C(F)(F)F)OC(C(F)(F)F)C(F)(F)F)C(F)(F)F
inactive: [4] 101 % of control | [5] 92 % of control | [6] 92 % of control

CC(=O)OC1CC(O)C23COC(O)C1C2CC(O)C1(C)C3C(=O)CC2(C)C(c3ccoc3)CC3OC321 (stereo not drawn)
inactive: dose: 0.25 mg/kg/injection, schedule: Q01DX009 (ip), vehicle: Klucel (hydroxypropylcellulose) (HPC) 103 % of control | dose: 0.5 mg/kg/injection, schedule: Q01DX009 (ip), vehicle: Klucel (hydroxypropylcellulose) (HPC) 99 % of control | dose: 1.0 mg/kg/injection, schedule: Q01DX009 (ip), vehicle: Klucel (hydroxypropylcellulose) (HPC) 111 % of control | dose: 2.0 mg/kg/injection, schedule: Q01DX009 (ip), vehicle: Klucel (hydroxypropylcellulose) (HPC) 90 % of control

O=C(O)Cc1c[nH]c2ccccc12
inactive: [7] 105 % of control | [8] 100 % of control | [9] 99 % of control

CCN(CC)C1CS(=O)(=O)OC2=C1Cc1ccccc1CC2 (stereo not drawn)
inactive: dose: 50.0 mg/kg/injection, schedule: Q04DX003 (ip), vehicle: Klucel (hydroxypropylcellulose) (HPC) 100 % of control | [10] 99 % of control | [11] 105 % of control

CCOC(=O)c1c[nH]c2ccc3c(nc(C)n3C)c2c1=O
inactive: dose: 30.0 mg/kg/injection, schedule: Q01DX005 (ip), vehicle: Klucel (hydroxypropylcellulose) (HPC) 102 % of control and 91 % of control | [2] 103 % of control and 110 % of control and 91 % of control | dose: 120.0 mg/kg/injection, schedule: Q01DX005 (ip), vehicle: Klucel (hydroxypropylcellulose) (HPC) 112 % of control (2×) and 113 % of control | dose: 240.0 mg/kg/injection, schedule: Q01DX005 (ip), vehicle: Klucel (hydroxypropylcellulose) (HPC) 115 % of control and 122 % of control and 123 % of control

O=C(NCCCl)NCCCl
inactive: dose: 10.0 mg/kg/injection, schedule: Q01DX009 (ip), vehicle: saline 105 % of control and 108 % of control | dose: 20.0 mg/kg/injection, schedule: Q01DX009 (ip), vehicle: saline 101 % of control and 102 % of control | dose: 40.0 mg/kg/injection, schedule: Q01DX009 (ip), vehicle: saline 104 % of control and 108 % of control | dose: 80.0 mg/kg/injection, schedule: Q01DX009 (ip), vehicle: saline 102 % of control and 109 % of control | dose: 160.0 mg/kg/injection, schedule: Q01DX009 (ip), vehicle: saline 101 % of control and 104 % of control | dose: 320.0 mg/kg/injection, schedule: Q01DX009 (ip), vehicle: saline 102 % of control and 106 % of control

CCN(CC)Cc1cc(N=Nc2cc(OC)c(N=Nc3ccc([N+](=O)[O-])cc3)cc2OC)c2cccnc2c1O
inactive: [1] 107 % of control | dose: 50.0 mg/kg/injection, schedule: Q01DX005 (ip), vehicle: Klucel (hydroxypropylcellulose) (HPC) 106 % of control and 107 % of control and 114 % of control | dose: 100.0 mg/kg/injection, schedule: Q01DX005 (ip), vehicle: Klucel (hydroxypropylcellulose) (HPC) 112 % of control and 117 % of control and 123 % of control | dose: 200.0 mg/kg/injection, schedule: Q01DX005 (ip), vehicle: Klucel (hydroxypropylcellulose) (HPC) 112 % of control and 117 % of control | [3] 116 % of control

COc1cc2c(c(OC(C)=O)c1OC(C)=O)-c1ccc(SC)c(=O)cc1C(NC(C)=O)CC2 (stereo not drawn)
inactive: dose: 1.25 mg/kg/injection, schedule: Q01DX009 (ip), vehicle: Klucel (hydroxypropylcellulose) (HPC) 110 % of control | dose: 2.5 mg/kg/injection, schedule: Q01DX009 (ip), vehicle: Klucel (hydroxypropylcellulose) (HPC) 105 % of control | dose: 5.0 mg/kg/injection, schedule: Q01DX009 (ip), vehicle: Klucel (hydroxypropylcellulose) (HPC) 93 % of control | dose: 9.0 mg/kg/injection, schedule: Q01DX009 (ip), vehicle: Klucel (hydroxypropylcellulose) (HPC) 100 % of control | dose: 10.0 mg/kg/injection, schedule: Q01DX009 (ip), vehicle: Klucel (hydroxypropylcellulose) (HPC) 105 % of control | dose: 18.0 mg/kg/injection, schedule: Q01DX009 (ip), vehicle: Klucel (hydroxypropylcellulose) (HPC) 89 % of control | dose: 36.0 mg/kg/injection, schedule: Q01DX009 (ip), vehicle: Klucel (hydroxypropylcellulose) (HPC) 100 % of control

C/C(CC(O)(c1ccccc1)c1ccccc1)=N/Sc1ccccc1
inactive: [10] 100 % of control | [11] 92 % of control | dose: 400.0 mg/kg/injection, schedule: Q04DX003 (ip), vehicle: Klucel (hydroxypropylcellulose) (HPC) 94 % of control

COc1cc2c(c(OC)c1OC)-c1cc3c(cc1CC(CO)C(CO)C2)OCO3 (stereo not drawn)
inactive: dose: 0.5 mg/kg/injection, schedule: Q04DX002 (ip), vehicle: saline with Tween-80 101 % of control | dose: 1.0 mg/kg/injection, schedule: Q04DX002 (ip), vehicle: saline with Tween-80 106 % of control | dose: 2.0 mg/kg/injection, schedule: Q04DX002 (ip), vehicle: saline with Tween-80 103 % of control

CN(C)c1ccc(C(O)Cc2ccc3ccccc3n2)cc1 (stereo not drawn)
inactive: [12] 113 % of control | [13] 92 % of control | [14] 92 % of control

N#C/C(=C\Nc1ccccn1)C(=O)C1CC1
inactive: [15] 100 % of control | [16] 92 % of control | [17] 91 % of control

CC1(C)NC(=O)N2CCCC(=O)CC21 (stereo not drawn)
inactive: dose: 100.0 mg/kg/injection, schedule: Q01DX001 (ip), vehicle: saline 96 % of control | dose: 200.0 mg/kg/injection, schedule: Q01DX001 (ip), vehicle: saline 95 % of control | dose: 400.0 mg/kg/injection, schedule: Q01DX001 (ip), vehicle: saline 96 % of control

COC(=O)C1Cc2c([nH]c3ccccc23)C2CCC(=O)N12 (stereo not drawn)
inactive: [12] 108 % of control | [13] 100 % of control | [14] 104 % of control

Cc1nn(C(=S)S)c(C)c1N=Nc1cccc(F)c1
inactive: [4] 117 % of control | [5] 111 % of control | [6] 106 % of control

Cc1cccnc1NC1OC(=O)c2ccccc21 (stereo not drawn)
inactive: dose: 50.0 mg/kg/injection, schedule: Q01DX009 (ip), vehicle: saline with Tween-80 100 % of control | dose: 100.0 mg/kg/injection, schedule: Q01DX009 (ip), vehicle: saline with Tween-80 96 % of control

Cc1ccc2cccc(C(=O)N(C)C)c2[n+]1C
inactive: dose: 31.2 micrograms/kg/injection, schedule: Q04DX002 (ip), vehicle: saline 100 % of control | dose: 62.5 micrograms/kg/injection, schedule: Q04DX002 (ip), vehicle: saline 103 % of control

CN1c2ccccc2C2=C(C3=C(CS2)C(=O)CCS3)S1(=O)=O
inactive: [7] 100 % of control | [8] 99 % of control | [9] 100 % of control

O=C1OC(c2c[nH]c3ccccc3c2=O)c2ccccc21 (stereo not drawn)
inactive: [15] 103 % of control | [16] 95 % of control | [17] 88 % of control
